# Like-named read-outs stand apart in the source and are kept apart here.
# Key:
# SK-MEL-2 = assay: Drug combination assay, SK-MEL-2; type: cell-based; conditions: for CI in SK-MEL-2 with compound 19: Combination Index at ED50, CalcuSyn 2.1, listed drug + compound 19
# Protocol: (§1) Preliminary cytotoxic screenings for each drug used in drug combination assays were performed to determine their cytotoxic dose range. […] Eight concentrations were established by 1:3 serial dilutions of the single drugs and their combinations with the splicing modulators. All drug concentrations were evaluated in triplicate in 96-well cell culture plates. Assays of individual drugs and drug combinations were run on the same tissue culture plate. Cell viability was determined using the CellTiter-Glo reagent.
# (§2) Luminescence data obtained from the cell viability determinations were formatted per the requirements of the analytical software (viability data range: >0 and <1). The formatted data were analyzed with the software CalcuSyn 2.1 (Biosoft, Cambridge, UK), which provides quantitative CI values for the drug interaction analyses (see ranges in Supplementary Table S2).
# JeKo1 = assay: In vitro cytotoxicity analysis, JeKo1; type: cell-based; conditions: Homo sapiens, JeKo-1
# Source text: The A549 lung cancer, WiDr colorectal cancer, MCF-7 breast cancer, PC-3 prostate cancer, and OVCAR-3 ovarian cancer cell lines were purchased from the American Type Culture Collection (ATCC, Manassas, Va.) and were maintained in growth media as recommended by the ATCC. The JeKo-1 and JVM-2 mantle cell lymphoma cell lines were purchased from the DSMZ (Brunswick, Germany) and were maintained in growth media as recommended by the vendor. The pediatric rhabdomyosarcoma Rh18 cell line was provided y Dr. P. Houghton (Ohio State University—Nationwide Children's Hospital, Columbus, Ohio) and were maintained in growth media as recommended by Dr. Houghton. All cell culture media were supplemented with L-glutamine and penicillin/streptomycin. All cells were grown under standard culture conditions in CO2 incubators, at 37° C., with 5% CO2, and 100% relative humidity.
# Cell viabilities were determined by measuring the cleavage of (sodium 3′-[1-(phenylaminocarbonyl)-3,4-tetrazolium]-bis(4-methoxy-6-nitro)benzene sulfonic acid hydrate) (XTT) to a water-soluble orange formazan by mitochondrial dehydrogenase, following the manufacturer's instructions (Roche Applied Science, Indianapolis, Ind.). Briefly, cell lines were seeded at various cell densities depending on the cell type. The adherent cell lines were allowed to adhere overnight before compound addition, whereas the suspension cell lines were seeded the day of compound addition. Stock concentrations of the compounds were made in DMSO, diluted in culture media and subsequently added to the plates at various final concentrations, then incubated for 72 hours. After the incubation period, the XTT labeling reagent, containing the electron-coupling reagent, was added to each well and incubated for 4 hours. The absorbance of each well was then read at 490 nm with a reference wavelength of 690 nm using a VersaMax™ microplate reader (Sunnyvale, Calif.). Data are expressed as the percentage of growth compared to vehicle-treated cells, as calculated from absorbance and corrected for background absorbance.
# Alternatively, cell lines were seeded in 100 μL cell culture medium in 96-well plates. Depending on the cell proliferation rate, cells were seeded at 4,000 to 6,000 cells/well. Suspension cell cultures were initiated with 20,000 cells/well. The cells were incubated overnight at 37° C., and then the drug treatments were started by adding 50 μL medium containing the corresponding drug dilution and DMSO. The final concentration of DMSO onto the cells was 0.5% v/v in all wells. The cells viability was determined using the CellTiter-Glo Luminescent Cell Viability Assay (Promega, Madison, Wis.). The CellTiter-Glo reagent was prepared according to the manufacturer's instructions, and then 50 μL reagent was added to each well for 1 h at rt. The luminescence was measured on an Envision Multilabel Plate Reader (PerkinElmer, Waltham, Mass.). The IC50 values were calculated from the dose-response curve analysis with GraphPad Prism 6.01 (GraphPad Software, La Jolla, Calif.) using the nonlinear regression model 4 Parameter Logistic. Nine concentrations were generated by 1:2 serial dilutions for each IC50 assay. Each drug concentration was evaluated in triplicate or quadruplicate.
# [1] = Solubility in phosphate buffered saline (HPLC); type: physicochemical
# [2] = Mouse plasma stability (HPLC); type: in vitro ADME; conditions: mouse plasma at 37° C.
# [3] = system: cytotoxicity or splicing modulation; assay: Rapid onset of cytotoxicity or splicing modulation; type: cell-based; conditions: maximum cytotoxicity or splicing modulation within 5 hours of drug treatment
# Protocol: The cell were seeded in of 100 μl of medium into 96-well plates (HeLa at 4×10^4 cell/well; SK_MEL_2 at 6×10^4 cell/well), they were allowed to attach overnight, and then treatments started by adding 50 μl of medium containing Sudemycin D6 to produce a final concentration of 1 μM and DMSO to 0.5% v/v final into the experimental well. Continuous drug treatments were run in the same plate, using concentrations of 0, 62.5, 125, 250, 500 & 1000 nM final. DMSO was added into all wells, including non-treated wells to 0.5% v/v final concentration. For wells where the drug was withdrawn, the medium was carefully aspirated after 1, 2, 3 and 4 hours after the addition of the drug, the cells were washed once with PBS and then 150 μl of fresh cell culture medium containing 0.5% v/v DMSO was added into all washed out wells. After 72 hours of the addition of drug, the cell viability was determined using CellTiter-Glo luminescent cell viability assay (Promega, Madison, Wis.), and Sudemycin D6 cytotoxicity was calculated as the percentage of cell proliferation inhibition against the control treatment DMSO.
# [4] = system: MDM2 alternative splicing in Rh18 cells; assay: In vitro alternative splicing assay (MDM2, RT-PCR); type: cell-based; conditions: Rh18 cells, 8 h exposure; Table II
# Protocol: Briefly, following an 8 h exposure of exponentially growing cells to drug, total RNA was isolated using TRIzol reagent (Invitrogen, Carlsbad, Calif.). Total RNA (1 μg) was used to convert the mRNA to cDNA by using random primers, Oligo(dT)16 and Omniscript Reverse Transcription Kit (Qiagen, Germantown, Md.). PCR analyses were performed using specific oligonucleotides (see Table I) and standard amplification protocols. PCR products were separated by agarose gel electrophoresis, visualized by ethidium bromide staining on an UV transilluminator, and recorded. PCR band sizes were calculated by comparing them to the standard EZ Load 100-bp PCR Molecular Ruler (BioRad Laboratories, Hercules, Calif.).
# Sk-N-AS = assay: Drug combination assay, Sk-N-AS neuroblastoma; type: cell-based; conditions: neuroblastoma cell line SK-NA-S; CalcuSyn 2.1
# Protocol: as §1, §2
# cell lines investigated = assay: Drug combination assays, cell line not stated; type: cell-based
# Protocol: as §1, §2
# [5] = listed drug combined with compound 19, Ineffective = drug IC50 much higher than 1 μM
structure (smiles),measurement,setting,value
CC[C@@]1(O)C(=O)OCc2c1cc1n(c2=O)Cc2cc3ccccc3nc2-1 [Camptothecin],CI in SK-MEL-2 with compound 19,SK-MEL-2,0.74
same,Interaction Type,SK-MEL-2; [5],Antagonism (1.45-3.3)
CC(/C=C/[C@@H]1C[C@]2(CO2)CC(C)(C)O1)=C\C[C@H]1CC[C@@H](NC(=O)/C=C\[C@H](C)OC(=O)N(C)CCN(C)C)CC1,IC50,JeKo1; Table II,170 nM
same,solubility,"[1]; aqueous buffer, read-out: Buffer Soluble",> 10 µM
CC(/C=C/[C@@H]1C[C@]2(CO2)CC(C)(C)O1)=C\C[C@H]1CC[C@@H](NC(=O)/C=C\[C@H](C)OC(=O)C(C)C)CC1,Plasma Stability,[2],No
same,Rapid Onset,[3],Yes (“Yes” indicates maximum cytotoxicity or splicing modulation is seen within 5 hours of drug treatment.)
same,IC50,JeKo1; Table II,47 nM
same,MDM2 Splicing Effects,[4],Yes
same,Buffer Soluble,[1],No
CC(/C=C/[C@@H]1C[C@]2(CO2)CC(C)(C)O1)=C\C[C@H]1OC[C@@H](NC(=O)/C=C\[C@H](C)OC(=O)N(C)C(C)(C)C)CO1,IC50,JeKo1; Table III,780 nM
CC(/C=C/[C@@H]1C[C@]2(CO2)CC(C)(C)O1)=C\C[C@H]1OC[C@@H](NC(=O)/C=C\[C@H](C)OC(=O)N(C)C(C)C)CO1,IC50,JeKo1; Table III,700 nM
Cc1ncc(C[n+]2csc(CCO)c2C)c(=O)[nH]1 [Oxythiamine],Interaction Type,SK-MEL-2; [5],Ineffective
COc1cc(C2Oc3cc([C@H]4Oc5cc(O)cc(O)c5C(=O)[C@@H]4O)ccc3OC2CO)ccc1O (some centres unmarked) [Silibinin],CI in SK-MEL-2 with compound 19,SK-MEL-2,0.89
same,Interaction Type,SK-MEL-2; [5],Moderate
COc1ccc(C2=N[C@@H](c3ccc(Cl)cc3)[C@@H](c3ccc(Cl)cc3)N2C(=O)N2CCNC(=O)C2)c(OC(C)C)c1 [Nutlin-3],Interaction Type,SK-MEL-2; [5],Ineffective
Cc1ccc(NC(=O)c2ccc(CN3CCN(C)CC3)cc2)cc1Nc1nccc(-c2cccnc2)n1 [Imatinib],Interaction Type,SK-MEL-2; [5],Antagonism (1.45-3.3)
COc1cccc2c1C(=O)c1c(O)c3c(c(O)c1C2=O)C[C@@](O)(C(=O)CO)C[C@@H]3O[C@H]1C[C@H](N)[C@H](O)[C@H](C)O1 [Doxorubicin],Interaction Type,SK-MEL-2; [5],Ineffective
CC(/C=C/[C@@H]1C[C@]2(CO2)CC(C)(C)O1)=C\C[C@H]1OC[C@@H](NC(=O)/C=C\[C@H](C)OC(=O)NC(C)(C)C)CO1,IC50,JeKo1; Table III,> 1000 nM
Cn1c(=O)n(-c2ccc(C(C)(C)C#N)cc2)c2c3cc(-c4cnc5ccccc5c4)ccc3ncc21 [BEZ 235],drug interaction with compound 19,Sk-N-AS,strong synergism
same,drug interaction with compound 20,Sk-N-AS,strong synergism
same,drug interaction with compound 19 (panel of 23 drugs),cell lines investigated,strongest synergy
same,CI in SK-MEL-2 with compound 19,SK-MEL-2,0.21
same,Interaction Type,SK-MEL-2; [5],Strong
COc1cc([C@@H]2c3cc4c(cc3[C@@H](O[C@@H]3O[C@@H]5CO[C@@H](C)O[C@H]5[C@H](O)[C@H]3O)[C@H]3COC(=O)[C@H]23)OCO4)cc(OC)c1O [Etoposide],Interaction Type,SK-MEL-2,Ineffective
COC(=O)C[C@](O)(CCC(C)(C)O)C(=O)O[C@@H]1C(OC)=C[C@]23CCCN2CCc2cc4c(cc2[C@H]13)OCO4 [Harringtonine],Interaction Type,SK-MEL-2; [5],Antagonism (1.45-3.3)
Cc1[nH]c2ccccc2c1CCNCc1ccc(/C=C/C(=O)NO)cc1 [Panobinostat],CI in SK-MEL-2 with compound 19,SK-MEL-2,0.76
O=C(O)c1nn(Cc2ccc(Cl)cc2Cl)c2ccccc12 [Lonidamine],Interaction Type,SK-MEL-2; [5],Ineffective
CC(/C=C/[C@@H]1C[C@]2(CO2)CC(C)(C)O1)=C\C[C@H]1OC[C@@H](NC(=O)/C=C\[C@H](C)OC(=O)N(C)C)CO1,IC50,JeKo1; Table III,300 nM
CCCCCCCCCCCCNC(=O)NC1CCCCC1 [NCND],cytotoxic effect of drug alone,cell lines investigated; single drug in combination assays,Neither AUDA nor NCND alone produced a cytotoxic effect
same,Interaction Type,SK-MEL-2; [5],Slightly
C/C(=C\C(=O)Nc1ccccc1C(=O)O)c1ccc2ccccc2c1 [BIBR 1532],Interaction Type,SK-MEL-2,Ineffective
NC(=O)NO [Hydroxyurea],Interaction Type,SK-MEL-2,Ineffective
COc1ccc2c(c1)/C(=C/c1cnc[nH]1)C(=O)N2 [SU 9516],CI in SK-MEL-2 with compound 19,SK-MEL-2,0.83
same,Interaction Type,SK-MEL-2; [5],Antagonism (1.45-3.3)
CNC(=O)c1cc(Oc2ccc(NC(=O)Nc3ccc(Cl)c(C(F)(F)F)c3)cc2)ccn1 [Sorafenib],drug interaction with compound 19,Sk-N-AS,predominantly synergistic
same,drug interaction with compound 19 (panel of 23 drugs),cell lines investigated,second strongest synergistic agent
same,CI in SK-MEL-2 with compound 19,SK-MEL-2,0.43
CO[C@@]12[C@H](COC(N)=O)C3=C(C(=O)C(C)=C(N)C3=O)N1C[C@@H]1N[C@@H]12 [Mitomycin C],Interaction Type,SK-MEL-2,Ineffective
CC(/C=C/[C@@H]1C[C@]2(CO2)CC(C)(C)O1)=C\C[C@H]1CC[C@@H](NC(=O)/C=C\[C@H](C)OC(N)=O)CC1,IC50,JeKo1; Table II,100 nM
CC(C)C[C@H](NC(=O)[C@H](Cc1ccccc1)NC(=O)c1cnccn1)B(O)O [Bortezomib],Interaction Type,SK-MEL-2; [5],Antagonism (1.45-3.3)
CCCN(C)C(=O)O[C@@H](C)/C=C\C(=O)N[C@H]1CO[C@@H](C/C=C(C)/C=C/[C@@H]2C[C@]3(CO3)CC(C)(C)O2)OC1,IC50,JeKo1; Table III,610 nM
CCCCN(C)C(=O)O[C@@H](C)/C=C\C(=O)N[C@H]1CO[C@@H](C/C=C(C)/C=C/[C@@H]2C[C@]3(CO3)CC(C)(C)O2)OC1,IC50,JeKo1; Table III,690 nM
O=c1[nH]cc(F)c(=O)[nH]1 [5-Fluorouracil],Interaction Type,SK-MEL-2; [5],Ineffective^a
CC(=O)O[C@H]1C(=O)[C@@]2(C)[C@H]([C@H](OC(=O)c3ccccc3)[C@]3(O)C[C@H](OC(=O)[C@H](O)[C@@H](NC(=O)c4ccccc4)c4ccccc4)C(C)=C1C3(C)C)[C@]1(OC(C)=O)CO[C@@H]1C[C@@H]2O [Taxol],Interaction Type,SK-MEL-2; [5],Antagonism (1.45-3.3)

# Source: patent US9682993B2, “Anticancer compounds” (ST. JUDE CHILDREN'S RESEARCH HOSPITAL, priority 2012, dated 2017)
